For data set [1], the system named is RAW264.7. Put plainly: Antiinflammatory activity in mouse RAW264.7 cells assessed as inhibition of LPS/IFN-gamma-induced NO production at 25 to 100 uM after 20 hrs by Griess method. The data set is classed as functional, cell-based.
Data set [2] relates to RAW264.7. Put plainly: Protection against LPS/IFN-gamma-induced cell damage in mouse RAW264.7 cells by MTT assay. The data set is classed as functional, cell-based. A general note: Tetrazolium assays rely on reduction of a dye to a coloured formazan, in cell work by metabolically active cells.
For data set [3], the system named is RAW264.7. Put plainly: Antiinflammatory activity in mouse RAW264.7 cells assessed as inhibition of LPS/IFN-gamma-induced iNOS gene expression at 25 uM by RT-PCR analysis. The data set is classed as functional.
In data set [4] the test system is RAW264.7. Put plainly: Cytotoxicity against mouse RAW264.7 cells assessed as cell viability at 25 to 100 uM by MTT assay. It counts as cell-based. The following applies: raw264.7, 100 µM.
Data set [5] is described as follows: Antioxidant activity in PBS buffer assessed as nitric oxide scavenging activity by measuring inhibition of nitrite production from NOR3 after 60 mins. The data set is classed as functional.
In data set [6] the test system is RAW264.7. Put plainly: Antiinflammatory activity in mouse RAW264.7 cells assessed as inhibition of LPS/IFN-gamma-induced NO production after 20 hrs by Griess method. It counts as functional, cell-based. (The Griess reaction detects nitrite, a stable product of nitric oxide.)
Data set [7] has as its system RAW264.7. Nature of the data set: Antiinflammatory activity in mouse RAW264.7 cells assessed as inhibition of LPS/IFN-gamma-induced iNOS protein production at 100 uM by RT-PCR analysis. It counts as functional, cell-based.

Active and inactive are the calls of the source. The calls are words filed in the database; no cut-off is given here.

For `C[C@@H]1O[C@@H](Oc2c(-c3ccc(O)c(O)c3)oc3cc(O)cc(O)c3c2=O)[C@H](O)[C@H](O)[C@H]1O`, in the data set with RAW264.7 [1], the inhibition (as a rule, how much of the control response was suppressed) was “Active”.

For `COc1c(C)c(O)c(Cc2c(O)cc(O)c3c2O[C@H](c2ccc(O)c(O)c2)[C@@H](O)C3)c(O)c1C(C)=O` [PILOSANOL N], the Activity result was “Dose-dependent effect” with RAW264.7 [2] and “Non-toxic” in the data set with RAW264.7 [4]. In addition, the inhibition at 25 µM in the data set with RAW264.7 [3] was 60%. The inhibition result (in data set [5]; in the data set on RAW264.7 [6]) was “Dose-dependent effect” throughout. Moreover, in the data set on RAW264.7 [7], the inhibition result is “Active”.

(Values after ChEMBL document CHEMBL1949582, “Suppression of nitric oxide production on LPS/IFN-γ-stimulated RAW264.7 macrophages by a novel catechin, pilosanol N, from Agrimonia pilosa Ledeb” (Bioorg Med Chem Lett, 2012).)
